Test results published in paper PMC10583352, “B7H3 targeting gold nanocage pH-sensitive conjugates for precise and synergistic chemo-photothermal therapy against NSCLC” (Journal of Nanobiotechnology, 2023).

Experiments:
NCI-H1299 cells [1] = experiment: Cell cycle analysis (PI/RNase, flow cytometry); format: cell-based, human; conditions: without irradiation, 1 μg/mL Dox equivalent, 24 h
Description: Next, Dox, GNCs, B7H3@GNCs, Dox@GNCs, or B7H3/Dox@GNCs (1 μg/mL Dox equivalent) were added to the culture medium. […] After the cells were fixed, RNase A solution was added to degrade RNA, and cells were stained with PI. Finally, the samples were subjected to cell cycle analysis using flow cytometry. ROS was detected using the method described above, except that the cells were stained with DCFH-DA and analyzed using flow cytometry.

NCI-H1299 lung tumor = experiment: Histological examination (H&E, CD34 IHC) of tissues of xenograft-bearing mice; format: in vivo; conditions: xenograft-bearing mice after i.v. administration
[2] = system: NCI-H1299 cell-derived xenograft; experiment: Antitumor efficacy in NCI-H1299 cell-derived xenograft; format: in vivo, BALB/c nude mice; conditions: 14 day treatment
Description: The heterotopic xenograft mouse model of NSCLC was established by subcutaneous injection of 1.0 × 10^7 NCI-H1299 cells into the right dorsal side of BALB/c nude mice. The tumor size and body weight of the mice were measured and recorded every 2 days. The tumor volume (mm^3) was calculated using the formula: V = W^2 × L/2, where the width (W) and length (L) were measured using an electronic caliper. When the tumor volume reached 80–100 mm^3, mice were administered i.v. Dox at a dose of 3 mg/kg in the indicated formulation at 3 day intervals via the tail vein until euthanized.

[3] = Biodistribution of Dox in tumor-bearing mice; format: in vivo, BALB/c athymic nude male mice; conditions: i.v. 3 mg/kg Dox
Description: A xenograft model was established using BALB/c athymic nude male mice (weight: 20 ± 2 g) and NCI-H1299 cells. […] The collected tissues were rinsed in ice-cold physiological saline to remove the superficial blood and other debris and stored at − 80 ℃ until analysis. The collected tissues were diced into small pieces and homogenized with three volumes of saline. Subsequently, 100 μL plasma and tissue homogenate samples were spiked with 10 μL epirubicin as the internal standard and vortex-mixed with 300 μL methanol for 5 min. After 15 min of centrifugation at 15,000 × g and 4 °C to precipitate proteins, 5 μL supernatant aliquots were analyzed using HPLC–MS/MS.

[4] = Pharmacokinetics after single i.v. administration in rats (plasma Dox, LC-MS/MS); format: in vivo, Sprague–Dawley rats; conditions: 3 mg/kg Dox equivalent, Mean ± SD, n = 6
Description: The pharmacokinetic properties of B7H3/Dox@GNCs were studied using 18 male Sprague–Dawley rats, weighing 200 ± 20 g. The rats were randomly divided into three groups (n = 6 per group) and administered Dox•HCl, Dox@GNCs, and B7H3/Dox@GNCs (3 mg/kg Dox equivalent dose) intravenously (i.v.) through the tail vein. Next, 300 μL blood samples were collected into heparinized tubes from the venous plexus at 0, 0.05, 0.13, 0.25, 0.5, 1, 1.5, 2, 4, 6, 8, 12, and 24 h. After centrifugation at 3000 × g for 15 min, the plasma samples were obtained and stored at – 80 ℃ until analysis.
The collected tissues were diced into small pieces and homogenized with three volumes of saline. Subsequently, 100 μL plasma and tissue homogenate samples were spiked with 10 μL epirubicin as the internal standard and vortex-mixed with 300 μL methanol for 5 min. After 15 min of centrifugation at 15,000 × g and 4 °C to precipitate proteins, 5 μL supernatant aliquots were analyzed using HPLC–MS/MS.

NCI-H1299 cells [5] = experiment: MTT cytotoxicity with/without NIR irradiation; format: cell-based, human; conditions: without irradiation, 24 h
Description: The cytotoxicity of B7H3/Dox@GNCs on tumor cells was assessed using the MTT assay. Briefly, NCI-H1299 cells (4 × 10^3 cells/well) were seeded in a 96-well plate and incubated for 12 h until the cells were completely attached. […] The cells were cultured for another 12 h and cell viability was determined using the MTT method.

In the case of `COc1cccc2c1C(=O)c1c(O)c3c(c(O)c1C2=O)C[C@@](O)(C(=O)CO)C[C@@H]3O[C@H]1C[C@H](N)[C@H](O)[C@H](C)O1.Cl` [Dox, doxorubicin hydrochloride], the “effect on cell cycle” value (NCI-H1299 cells [1]) is reported as “stagnated in the S phase and G2/M phase”, the “heart tissue histology (H&E)” value (NCI-H1299 lung tumor) is reported as “Dox-induced damage to the heart was observed” and the “body weight of mice” value [2] is reported as “drastic decrease in body weight”. The tumor growth ([2]; xenograft mice, i.v.) was “suppressed tumor growth”, the “Dox concentrations in heart, liver, lungs, spleen and kidneys versus Dox@GNCs and B7H3/Dox@GNCs groups” value [3] was “significantly higher” and the CL [4] was 2.17 ± 0 mL/min/kg. The “MRT0-∞” value [4] was 9.43 ± 0.46 h, the T1/2 [4] was 8.67 ± 0.34 h and the Vd [4] was 1.64 ± 0.41 L/kg. It also gave an IC50 (NCI-H1299 cells [5]) of 2.50 µg/mL.
